Columns and labels:
Assay in all cases: cells
[1] = system: MCF-7; conditions: Homo sapiens, MCF7, 48 h, read-out: Cell growth (%) MCF-7
[2] = system: CCRF-CEM; conditions: Homo sapiens, 48 h, read-out: Cell growth (%) CCRF-CEM
[3] = system: HT-29; conditions: Homo sapiens, HT-29, 48 h, read-out: Cell growth (%) HT-29

SMILES	activity at 10 µM [1]	activity at 10 µM [2]	activity at 10 µM [3]
O=C(/C=C/c1ccccc1)Nc1ccc([Se][Se]c2ccc(NC(=O)/C=C/c3ccccc3)cc2)cc1 [I.1l]	76.7%	50%	93%
Cc1ccc(C(=O)Nc2ccc([Se]C#N)cc2)cc1 [I.2g]	70.4%	94.3%	94.1%
Cc1ccc(OP(=O)(Nc2ccc([Se]C#N)cc2)Oc2ccc(C)cc2)cc1 [II.2g]	75.6%	108%	99.1%
N#C[Se]c1ccc(NC(=O)c2ccc(C#N)cc2)cc1 [I.2d]	74.3%	115%	105%
N#C[Se]c1ccc(NC(=O)/C=C/c2ccccc2)cc1 [I.2l]	65%	62%	76%
O=P(Nc1ccc([Se][Se]c2ccc(NP(=O)(Oc3ccccc3)Oc3ccccc3)cc2)cc1)(Oc1ccccc1)Oc1ccccc1 [II.1c]	94%	85.2%	109%
O=C(Nc1ccc([Se][Se]c2ccc(NC(=O)c3cccc4ccccc34)cc2)cc1)c1cccc2ccccc12 [I.1m]	75.5%	74.4%	78.8%
COc1ccc(C(=O)Nc2ccc([Se]C#N)cc2)cc1 [I.2c]	97.8%	76.5%	93.3%
O=C(Nc1ccc([Se][Se]c2ccc(NC(=O)c3ccno3)cc2)cc1)c1ccno1 [I.1j]	92.2%	112%	98.9%
COc1ccc(C(=O)Nc2ccc([Se][Se]c3ccc(NC(=O)c4ccc(OC)cc4)cc3)cc2)cc1 [I.1c]	79%	57.5%	81.4%
O=C(Nc1ccc([Se][Se]c2ccc(NC(=O)C34CC5CC(CC(C5)C3)C4)cc2)cc1)C12CC3CC(CC(C3)C1)C2 [I.1k]	88%	90.2%	97.1%
N#C[Se]c1ccc(NP(=O)(Nc2ccccc2)Oc2ccccc2)cc1 (stereo not drawn) [II.2f]	61.4%	22.3%	64.6%
N#C[Se]c1ccc(NC(=O)c2ccccc2)cc1 [I.2a]	63.7%	103%	71.6%
N#C[Se]c1ccc(NC(=O)c2cccc3ccccc23)cc1 [I.2m]	101%	70.9%	101%
Cc1ccc(OP(=O)(Nc2ccc([Se][Se]c3ccc(NP(=O)(Oc4ccc(C)cc4)Oc4ccc(C)cc4)cc3)cc2)Oc2ccc(C)cc2)cc1 [II.1g]	82.6%	111%	104%
CSc1ccc(C(=O)Nc2ccc([Se]C#N)cc2)cc1 [I.2n]	69.5%	100%	101%
N#C[Se]c1ccc(NC(=O)C23CC4CC(CC(C4)C2)C3)cc1 [I.2k]	113%	107%	99.7%
N#C[Se]c1ccc(NP(=O)(Oc2ccccc2)Oc2ccccc2)cc1 [II.2c]	114%	81.9%	116%
O=C(Nc1ccc([Se][Se]c2ccc(NC(=O)c3cccs3)cc2)cc1)c1cccs1 [I.1i]	104%	100%	98.2%
O=P(Nc1ccccc1)(Nc1ccc([Se][Se]c2ccc(NP(=O)(Nc3ccccc3)Oc3ccccc3)cc2)cc1)Oc1ccccc1 (stereo not drawn) [II.1f]	90%	125%	106%
N#Cc1ccc(C(=O)Nc2ccc([Se][Se]c3ccc(NC(=O)c4ccc(C#N)cc4)cc3)cc2)cc1 [I.1d]	79.1%	101%	109%
O=C(Nc1ccc([Se][Se]c2ccc(NC(=O)c3ccccc3)cc2)cc1)c1ccccc1 [I.1a]	79.7%	103%	82.6%
